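Briefly, cells in 96-well plates were exposed to five compound concentrations for 48 h, and endpoints were estimated by linear interpolation. GI50: concentration for 50% inhibition of growth. The concentration for full growth arrest is given as TGI.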
Experiments:
Test in all cases: inhibition of tumour cell growth, NCI panel, 48 h
[1] = test system: TK-10 renal
[2] = test system: HCT-15 colon
[3] = test system: SNB-19 CNS
[4] = test system: SR leukemia
[5] = test system: CAKI-1 renal
[6] = test system: MOLT-4 leukemia
[7] = test system: EKVX NSCLC
[8] = test system: OVCAR-8 ovarian
[9] = test system: NCI-H522 lung
[10] = test system: RPMI-8226 leukemia
[11] = test system: HL-60(TB) leukemia
[12] = test system: SN12C renal
[13] = test system: SK-MEL-2 melanoma
[14] = test system: SK-OV-3 ovarian
[15] = test system: COLO 205 colon
[16] = test system: SF-295 CNS
[17] = test system: KM12 colon
[18] = test system: T-47D breast
[19] = test system: OVCAR-3 ovarian
[20] = test system: K-562 leukemia
[21] = test system: BT-549 breast
[22] = test system: U251 CNS
[23] = test system: SNB-75 CNS
[24] = test system: NCI-H226 lung
[25] = test system: HT29 colon
[26] = test system: SF-539 CNS
[27] = test system: OVCAR-5 ovarian
[28] = test system: A549 NSCLC
[29] = test system: UACC-257 melanoma
[30] = test system: NCI/ADR-RES ovarian
[31] = test system: ACHN renal
[32] = test system: HOP-62 NSCLC
[33] = test system: DU-145 prostate
[34] = test system: UACC-62 melanoma
[35] = test system: OVCAR-4 ovarian
[36] = test system: NCI-H460 lung
[37] = test system: CCRF-CEM leukemia
[38] = test system: RXF 393 renal
[39] = test system: 786-0 renal
[40] = test system: HCC-2998 colon
[41] = test system: SK-MEL-28 melanoma
[42] = test system: MDA-MB-231 breast
[43] = test system: LOX IMVI melanoma
[44] = test system: MDA-MB-435
[45] = test system: SW-620 colon
[46] = test system: SK-MEL-5 melanoma
[47] = test system: UO-31 renal
[48] = test system: HOP-92 NSCLC
[49] = test system: M14 melanoma
[50] = test system: PC-3 prostate
[51] = test system: SF-268 CNS
[52] = test system: NCI-H23 lung

O=c1c(OC/C(=N/O)c2ccccc2)c(-c2ccccc2)oc2ccccc12
GI50 [1]: 11.6 µM | TGI [1]: 22.8 µM | GI50 [2]: 17.1 µM | TGI [2]: > 50 µM | GI50 [3]: 15.9 µM | TGI [3]: > 50 µM | GI50 [4]: 13.9 µM | TGI [4]: > 50 µM | GI50 [5]: 9.52 µM | TGI [5]: 40.8 µM | GI50 [6]: 12.6 µM | TGI [6]: > 50 µM | GI50 [7]: 12.3 µM | TGI [7]: 30.1 µM | GI50 [8]: 21.7 µM | TGI [8]: > 50 µM | GI50 [9]: 17 µM | TGI [9]: > 50 µM | GI50 [10]: 7.07 µM | TGI [10]: 15.6 µM | GI50 [11]: 12.6 µM | TGI [11]: > 50 µM | GI50 [12]: 11.2 µM | TGI [12]: 28.7 µM | GI50 [13]: 16.4 µM | TGI [13]: > 50 µM | GI50 [14]: 20.3 µM | TGI [14]: > 50 µM | GI50 [15]: 14.8 µM | TGI [15]: 42.9 µM | GI50 [16]: 11.2 µM | TGI [16]: 23.2 µM | GI50 [17]: 10.6 µM | TGI [17]: 24.6 µM | GI50 [18]: 14.8 µM | TGI [18]: 38.1 µM | GI50 [19]: 8.06 µM | TGI [19]: 20.1 µM | GI50 [20]: 13.7 µM | TGI [20]: > 50 µM | GI50 [21]: 13.2 µM | TGI [21]: 26.8 µM | GI50 [22]: 11 µM | TGI [22]: 27.3 µM | GI50 [23]: 16.8 µM | TGI [23]: > 50 µM | GI50 [24]: 21.3 µM | TGI [24]: > 50 µM | GI50 [25]: 13.7 µM | TGI [25]: 34.3 µM | GI50 [26]: 12.5 µM | TGI [26]: 28 µM | GI50 [27]: 22.3 µM | TGI [27]: > 50 µM | GI50 [28]: 30.3 µM | TGI [28]: > 50 µM | GI50 [29]: 14.1 µM | TGI [29]: 30.4 µM | GI50 [30]: 14 µM | TGI [30]: 42 µM | GI50 [31]: 10.5 µM | TGI [31]: 28 µM | GI50 [32]: 20.3 µM | TGI [32]: > 50 µM | GI50 [33]: 17.1 µM | TGI [33]: > 50 µM | GI50 [34]: 9.2 µM | TGI [34]: 25.2 µM | GI50 [35]: 38.6 µM | TGI [35]: > 50 µM | GI50 [36]: 11.3 µM | TGI [36]: 27.5 µM | GI50 [37]: 0.461 µM | TGI [37]: 6.47 µM | GI50 [38]: 20.8 µM | TGI [38]: > 50 µM | GI50 [39]: 19 µM | TGI [39]: > 50 µM | GI50 [40]: 9.64 µM | TGI [40]: 17.5 µM | GI50 [41]: 16.6 µM | TGI [41]: 28.9 µM | GI50 [42]: 9.39 µM | TGI [42]: 23.6 µM | GI50 [43]: 10.5 µM | TGI [43]: 19.5 µM | GI50 [44]: 10.9 µM | TGI [44]: 28 µM | GI50 [45]: 11.4 µM | TGI [45]: 25.4 µM | GI50 [46]: 7.88 µM | TGI [46]: 15 µM | GI50 [47]: 19.2 µM | TGI [47]: > 50 µM | GI50 [48]: 14.3 µM | TGI [48]: > 50 µM | GI50 [49]: 19.4 µM | TGI [49]: > 50 µM | GI50 [50]: 8.64 µM | TGI [50]: 18 µM | GI50 [51]: 11.7 µM | TGI [51]: 25 µM | GI50 [52]: 18.1 µM | TGI [52]: > 50 µM

Source: PubChem BioAssay (NCI)
